Results published in PubChem BioAssay AID248 (DTP/NCI, 2004).
Values joined by “and” are separate entries in the source; they are usually repeats but may differ in a detail not shown here. Equal values may be shown once. Toxic doses and inconclusive results are not listed. Cut-off read from the data, not from the text of the source: active = T/C of 150% or more; inactive = T/C below 125%.

System: L1210 leukemia ip in BDF1 mice, survival T/C
Assay: NCI In Vivo Anticancer Drug Screen. Data for tumor model L1210 Leukemia (intraperitoneal) in B6D2F1 (BDF1) mice
Conditions: endpoint: mean survival time, higher = longer survival
Procedure, shortened: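 Each compound was tested against a transplantable tumor grown in mice. The endpoint was survival, with treated animals benchmarked against vehicle controls as a simple ratio.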

[1] = dose: 100.0 mg/kg/injection, schedule: Q01DX001 (ip), vehicle: saline with Tween-80
[2] = dose: 200.0 mg/kg/injection, schedule: Q01DX001 (ip), vehicle: saline with Tween-80
[3] = dose: 400.0 mg/kg/injection, schedule: Q01DX001 (ip), vehicle: saline with Tween-80
[4] = dose: 100.0 mg/kg/injection, schedule: Q04DX002 (ip), vehicle: Klucel (hydroxypropylcellulose) (HPC)
[5] = dose: 200.0 mg/kg/injection, schedule: Q04DX002 (ip), vehicle: Klucel (hydroxypropylcellulose) (HPC)
[6] = dose: 400.0 mg/kg/injection, schedule: Q04DX002 (ip), vehicle: Klucel (hydroxypropylcellulose) (HPC)
[7] = dose: 100.0 mg/kg/injection, schedule: Q04DX003 (ip), vehicle: saline with Tween-80
[8] = dose: 200.0 mg/kg/injection, schedule: Q04DX003 (ip), vehicle: saline with Tween-80
[9] = dose: 400.0 mg/kg/injection, schedule: Q04DX003 (ip), vehicle: saline with Tween-80
[10] = dose: 100.0 mg/kg/injection, schedule: Q01DX009 (ip), vehicle: Klucel (hydroxypropylcellulose) (HPC)
[11] = dose: 100.0 mg/kg/injection, schedule: Q01DX009 (ip), vehicle: saline with Tween-80
[12] = dose: 200.0 mg/kg/injection, schedule: Q01DX009 (ip), vehicle: Klucel (hydroxypropylcellulose) (HPC)
[13] = dose: 200.0 mg/kg/injection, schedule: Q01DX009 (ip), vehicle: saline with Tween-80
[14] = dose: 400.0 mg/kg/injection, schedule: Q01DX009 (ip), vehicle: Klucel (hydroxypropylcellulose) (HPC)

Measured: T/C

CCOc1ccc(C2(C)CC(=O)NN2)c(O)c1 (centres undefined)
inactive: [1] 101 % of control | [2] 103 % of control | [3] 98 % of control

C(CCC1CCCC1)=C(CCCC1CCCC1)CCCC1CCCC1
inactive: [1] 100 % of control | [2] 94 % of control | [3] 91 % of control

Cc1ccccc1N(C)C
inactive: dose: 50.0 mg/kg/injection, schedule: Q04DX002 (ip), vehicle: saline with Tween-80 106 % of control | dose: 100.0 mg/kg/injection, schedule: Q04DX002 (ip), vehicle: saline with Tween-80 98 % of control | dose: 200.0 mg/kg/injection, schedule: Q04DX002 (ip), vehicle: saline with Tween-80 92 % of control

COC(=O)c1cc(NC(=O)Nc2cc(C(F)(F)F)ccc2Cl)cc(C(=O)OC)c1
inactive: [4] 112 % of control | [5] 105 % of control | [6] 105 % of control

O=S(=O)(/C=C\c1ccccc1)c1ccccc1
inactive: dose: 50.0 mg/kg/injection, schedule: Q01DX009 (ip), vehicle: saline 102 % of control | dose: 100.0 mg/kg/injection, schedule: Q01DX001 (ip), vehicle: acetone 97 % of control | dose: 100.0 mg/kg/injection, schedule: Q01DX009 (ip), vehicle: saline 97 % of control | dose: 100.0 mg/kg/injection, schedule: Q04DX003 (ip), vehicle: acetone 105 % of control | dose: 200.0 mg/kg/injection, schedule: Q01DX001 (ip), vehicle: acetone 106 % of control | dose: 200.0 mg/kg/injection, schedule: Q01DX009 (ip), vehicle: saline 91 % of control | dose: 200.0 mg/kg/injection, schedule: Q04DX003 (ip), vehicle: acetone 94 % of control | dose: 400.0 mg/kg/injection, schedule: Q01DX001 (ip), vehicle: acetone 97 % of control

Cc1ccc(O)cn1
inactive: [7] 100 % of control | [8] 96 % of control | [9] 103 % of control

N#CSc1ccc(Nc2ccc(SC#N)cc2)cc1
inactive: dose: 12.5 mg/kg/injection, schedule: Q01DX009 (ip), vehicle: Klucel (hydroxypropylcellulose) (HPC) 95 % of control | dose: 25.0 mg/kg/injection, schedule: Q01DX009 (ip), vehicle: Klucel (hydroxypropylcellulose) (HPC) 98 % of control

Cc1ccc(C(=O)C(Br)C(Br)c2ccccc2)cc1 (centres undefined)
inactive: [10] 89 % of control | [11] 90 % of control | [7] 92 % of control | [12] 89 % of control | [13] 89 % of control | [8] 89 % of control | [14] 96 % of control | [9] 95 % of control

O=C1C2CCCC1C(c1ccccc1)C=C2c1ccc(O)cc1 (centres undefined)
inactive: [7] 97 % of control | [8] 96 % of control | [9] 94 % of control

ClC(Cl)(Cl)C1NCCO1 (centres undefined)
inactive: [10] 96 % of control | dose: 100.0 mg/kg/injection, schedule: Q04DX003 (ip), vehicle: Klucel (hydroxypropylcellulose) (HPC) 102 % of control | [12] 97 % of control | dose: 200.0 mg/kg/injection, schedule: Q04DX003 (ip), vehicle: Klucel (hydroxypropylcellulose) (HPC) 94 % of control | [14] 89 % of control | dose: 400.0 mg/kg/injection, schedule: Q04DX003 (ip), vehicle: Klucel (hydroxypropylcellulose) (HPC) 94 % of control

CC(C)N=Cc1ccccc1O.CC(C)N=Cc1ccccc1O.[Ni]
inactive: dose: 6.25 mg/kg/injection, schedule: Q04DX003 (ip), vehicle: saline sonified 92 % of control | dose: 12.5 mg/kg/injection, schedule: Q04DX003 (ip), vehicle: saline sonified 101 % of control | dose: 25.0 mg/kg/injection, schedule: Q04DX003 (ip), vehicle: saline sonified 108 % of control | dose: 100.0 mg/kg/injection, schedule: Q04DX003 (ip), vehicle: saline 86 % of control

CC1CCc2cc3c4ccccc4n(C)c3cc2C1 (centres undefined)
inactive: dose: 75.0 mg/kg/injection, schedule: Q01DX001 (ip), vehicle: carboxymethylcellulose (CMC) 107 % of control | dose: 150.0 mg/kg/injection, schedule: Q01DX001 (ip), vehicle: carboxymethylcellulose (CMC) 109 % of control | dose: 300.0 mg/kg/injection, schedule: Q01DX001 (ip), vehicle: carboxymethylcellulose (CMC) 109 % of control

O=C(NC(=S)N1CC1)c1ccccc1
inactive: dose: 100.0 mg/kg/injection, schedule: Q04DX002 (sc), vehicle: olive oil, sesame oil, peanut oil 100 % of control | dose: 200.0 mg/kg/injection, schedule: Q04DX002 (sc), vehicle: olive oil, sesame oil, peanut oil 103 % of control | dose: 400.0 mg/kg/injection, schedule: Q04DX002 (sc), vehicle: olive oil, sesame oil, peanut oil 100 % of control

CCCCCCCCCCCCNC1=C(Cl)C(=O)c2ccccc2C1=O
inactive: dose: 1.0 mg/kg/injection, schedule: Q01DX Z (ip), vehicle: methylcellulose (MC) 94 % of control | dose: 2.2 mg/kg/injection, schedule: Q01DX Z (ip), vehicle: methylcellulose (MC) 89 % of control

Cc1nonc1NC(=O)OCc1ccccc1
inactive: [4] 97 % of control | [5] 93 % of control | [6] 104 % of control

CCc1n[nH]c(=S)n1N
inactive: dose: 12.5 mg/kg/injection, schedule: Q04DX003 (ip), vehicle: Klucel (hydroxypropylcellulose) (HPC) 94 % of control | dose: 25.0 mg/kg/injection, schedule: Q04DX003 (ip), vehicle: Klucel (hydroxypropylcellulose) (HPC) 89 % of control | dose: 50.0 mg/kg/injection, schedule: Q04DX003 (ip), vehicle: Klucel (hydroxypropylcellulose) (HPC) 96 % of control

CC1(C)CCCC/C1=N\NC(N)=O
inactive: dose: 37.5 mg/kg/injection, schedule: Q01DX009 (ip), vehicle: saline with Tween-80 98 % of control | dose: 75.0 mg/kg/injection, schedule: Q01DX001 (ip), vehicle: other 102 % of control | dose: 75.0 mg/kg/injection, schedule: Q01DX009 (ip), vehicle: saline with Tween-80 96 % of control | dose: 75.0 mg/kg/injection, schedule: Q04DX003 (ip), vehicle: saline sonified 98 % of control | dose: 150.0 mg/kg/injection, schedule: Q01DX001 (ip), vehicle: other 102 % of control | dose: 150.0 mg/kg/injection, schedule: Q01DX009 (ip), vehicle: saline with Tween-80 94 % of control | dose: 150.0 mg/kg/injection, schedule: Q04DX003 (ip), vehicle: saline sonified 87 % of control | dose: 300.0 mg/kg/injection, schedule: Q01DX001 (ip), vehicle: other 102 % of control

COc1ccc(C2C3CC4C(OC(=O)C42)C3I)cc1 (centres undefined)
inactive: [11] 97 % of control | [7] 95 % of control | [13] 98 % of control | [8] 95 % of control | dose: 400.0 mg/kg/injection, schedule: Q01DX009 (ip), vehicle: saline with Tween-80 88 % of control | [9] 87 % of control

CC(=O)/C(C)=C/C=O
inactive: dose: 0.78 mg/kg/injection, schedule: Q01DX009 (ip), vehicle: water 100 % of control | dose: 1.56 mg/kg/injection, schedule: Q01DX009 (ip), vehicle: water 102 % of control | dose: 3.12 mg/kg/injection, schedule: Q01DX009 (ip), vehicle: water 94 % of control | dose: 3.12 mg/kg/injection, schedule: Q04DX003 (ip), vehicle: water 95 % of control | dose: 6.25 mg/kg/injection, schedule: Q01DX009 (ip), vehicle: water 102 % of control | dose: 6.25 mg/kg/injection, schedule: Q04DX003 (ip), vehicle: water 101 % of control | dose: 12.5 mg/kg/injection, schedule: Q01DX009 (ip), vehicle: water 107 % of control | dose: 12.5 mg/kg/injection, schedule: Q04DX003 (ip), vehicle: water 100 % of control and 101 % of control

Clc1ccc(/C=C/c2ccccn2)c(Cl)c1
inactive: dose: 100.0 mg/kg/injection, schedule: Q04DX002 (ip), vehicle: gum acacia 109 % of control | dose: 200.0 mg/kg/injection, schedule: Q04DX002 (ip), vehicle: gum acacia 95 % of control | dose: 400.0 mg/kg/injection, schedule: Q04DX002 (ip), vehicle: gum acacia 87 % of control

Cc1ccc(S(N)(=O)=O)cc1
inactive: [7] 98 % of control | [8] 98 % of control | [9] 96 % of control

CC(=O)Nc1ccc2c(c1)C(=O)c1cc(NC(C)=O)ccc1-2
inactive: dose: 50.0 mg/kg/injection, schedule: Q01DX009 (ip), vehicle: saline with Tween-80 95 % of control | [11] 95 % of control | [7] 92 % of control | [13] 101 % of control | [8] 86 % of control | [9] 89 % of control
